Experiments:
[1] = test system: artificial skin model KeraSkin; assay: Skin barrier function improvement in SDS-damaged KeraSkin (TEER, TEWL, H&E, immunohistochemistry); format: cell-based, human; settings: KeraSkin damaged with 2% SDS, 10 μM retinoic acid or 0.01 wt % NGO
Experimental: After treating the surface of KeraSkin with SDS (sodium dodecyl sulfate), which is an anionic surfactant, to weaken the skin's natural barrier function, a positive control material (10 μM retinoic acid) and a test material (0.01 wt % NGO) were added to the surface for 48 days. In order to evaluate the degree of improvement in the skin barrier function weakened by SDS by 48-hour application treatment, electrical resistance in epithelial tissue was measured by using the Millipore ERS-2 (Millipore, USA) system, and transepidermal water loss was measured by using the GPSKIN BARRIER PRO-II system, and histopathology was performed on four types of skin barrier markers through immunochemical staining.
The epithelial cell layer has developed tight junctions, which are one of the forms of bonding between cells. These tight junctions form physical and chemical barriers, and the strength and integrity of these barriers can be assessed through the degree of electrical resistance across cell layers, which are called “transepithelial electrical resistance (TEER).” As the barrier function is excellent, the transepithelial electrical resistance value increases.
Transdermal moisture is an essential element for the skin to perform its barrier function normally, and when “transepidermal water loss (TEWL)” increases, the enzyme function required for normal exfoliation is damaged, and it is not possible to normally perform the skin barrier functions. Therefore, transepidermal water loss is used as an important physiological indicator during the damage and recovery process of the skin barrier.

[2] = test system: artificial skin model KeraSkin; assay: Skin irritation test using artificial skin model KeraSkin (MTT); settings: negative control (DPBS) = 100%, nano-carbon structure at 0.1 wt % (1 mg/mL)
Experimental: The inventors of the present invention evaluated the skin irritation of nano-carbon structures using the artificial skin model KeraSkin.
Specifically, the inventors of the present invention attempted to predict the possibility of skin irritation by measuring the damage to skin cells that appear while penetrating the stratum corneum of KeraSkin after sample treatment. This experiment used MTT, which is a reagent for measuring the cell viability of test materials, and was performed in compliance with the Cosmetic Risk Assessment Guidelines (Ministry of Food and Drug Safety, 2013) and Cosmetic Toxicity Test Animal Alternative Test Method Guideline V: Skin Irritation Test Method Using a Human Skin Model (Ministry of Food and Drug Safety, 2014).

[3] = test system: artificial skin model KeraSkin; assay: Skin corrosion test using artificial skin model KeraSkin (MTT); format: cell-based, human; settings: negative control (deionized water) = 100%, nano-carbon structure at 0.1 wt % (1 mg/mL)
Excerpt: The inventors of the present invention evaluated the skin corrosion properties of nano-carbon structures by using the artificial skin model […] is an artificial skin model that reproduces the skin's epithelium using human-derived skin keratinocytes and is manufactured to be similar to real skin in terms of morphology, microstructure and biomarker expression.

For `CC1=C(/C=C/C(C)=C/C=C/C(C)=C/C(=O)O)C(C)(C)CCC1` [retinoic acid], the “increase of transepithelial electrical resistance compared to the barrier damaged group” value [1] was 16.1%, the “reduction of transepidermal water loss compared to the barrier damaged group” value [1] was 10.8% and the “transepithelial electrical resistance (TEER)” value ([1]; 48-hour application, normal 1726.8±85.3, damaged 69.2±2.1) was 347.0±15.7 Ω·cm^2. For the same molecule, the “transepidermal water loss (TEWL) rate compared to the negative control group” value ([1]; damaged group 133.7±3.2%) was 122.9±6.5%.

With `CCCCCCCCCCCCOS(=O)(=O)[O-].[Na+]` [5% SDS, sodium dodecyl sulfate] the cell viability [2] was 1.6%.

`[K+].[OH-]` [8N KOH, Potassium hydroxide] showed a cell viability ([3]; applied for 3 minutes) of 1.6% and a cell viability ([3]; applied for 1 hour) of 0.6%.

Reference: patent US20250186313A1, “SCALP OR HAIR CARE COMPOSITION COMPRISING NANO-CARBON STRUCTURE” (INBCT Co., Ltd., priority 2022, published 2025)
